Calls of active or inactive are those of the source. The rule behind the calls is not given here.
Experiments:
[1] = tested on: RAW264.7; experiment: Anti-inflammatory activity in mouse RAW264.7 cells assessed as inhibition of LPS-induced nitric oxide production after 24 hrs by Griess method; assay type: functional, cell-based; conditions: RAW264.7, 24 h
[2] = tested on: RAW264.7; experiment: Cytotoxicity against mouse RAW264.7 cells at 30 uM after 24 hrs in presence of LPS by MTT assay; assay type: cell-based; conditions: raw264.7, 24 h
[3] = tested on: RAW264.7; experiment: Cytotoxicity against mouse RAW264.7 cells at 30 uM after 24 hrs in absence of LPS by MTT assay; assay type: cell-based; conditions: raw264.7, 24 h
[4] = tested on: RAW264.7; experiment: Anti-inflammatory activity in mouse RAW264.7 cells assessed as reduction in iNOS protein expression preincubated for 30 mins before LPS stimulation for 24 hrs by Western blot analysis; assay type: functional, cell-based
[5] = tested on: RAW264.7; experiment: Anti-inflammatory activity in mouse RAW264.7 cells assessed as reduction in COX2 protein expression at 30 uM preincubated for 30 mins before LPS stimulation for 24 hrs by Western blot analysis; assay type: functional, cell-based
[6] = tested on: RAW264.7; experiment: Anti-inflammatory activity in mouse RAW264.7 cells assessed as reduction in LPS-induced iNOS mRNA expression preincubated for 30 mins followed by LPS stimulation measured after 8 hrs by real-time qPCR method; assay type: functional, cell-based
[7] = tested on: RAW264.7; experiment: Anti-inflammatory activity in mouse RAW264.7 cells assessed as reduction in LPS-induced COX2 mRNA expression preincubated for 30 mins followed by LPS stimulation measured after 8 hrs by real-time qPCR method; assay type: functional, cell-based
[8] = tested on: RAW264.7; experiment: Anti-inflammatory activity in mouse RAW264.7 cells assessed as reduction in LPS-induced IL6 mRNA expression preincubated for 30 mins followed by LPS stimulation measured after 8 hrs by real-time qPCR method; assay type: functional, cell-based
[9] = tested on: RAW264.7; experiment: Anti-inflammatory activity in mouse RAW264.7 cells assessed as reduction in LPS-induced TNFalpha mRNA expression preincubated for 30 mins followed by LPS stimulation measured after 8 hrs by real-time qPCR method; assay type: functional, cell-based

Structure (SMILES)	IC50 [1] [µM]	Activity [2]	Activity [3]	Activity [4]	Activity [5]	Activity [6]	Activity [7]	Activity [8]	Activity [9]
CCCCCCCCCCCC/C=C/C1=CC(C)OC1=O (centres undefined)	> 30	Non-Toxic	Non-Toxic						
C#CCCCCCCCC/C=C/[C@H]1C(=O)O[C@@H](C)[C@H]1O [LITSEALACTONE B]	> 30	Non-Toxic	Non-Toxic						
C#CCCCCCCCCC/C=C1/C(=O)O[C@H](C)[C@H]1O	6.2	Non-Toxic	Non-Toxic	Dose-dependent effect	Active				
CCCCCCCCCCC/C=C1/C(=O)O[C@H](C)[C@H]1O	2.9	Non-Toxic	Non-Toxic						
CCCCC/C=C\C/C=C\CCCCC/C=C1/C(=O)O[C@H](C)[C@H]1O	4.4	Non-Toxic	Non-Toxic	Dose-dependent effect	Active				
C#CCCCCCCCC/C=C/C1=CC(C)OC1=O (centres undefined)	> 30	Non-Toxic	Non-Toxic						
CCCCCCCCCC/C=C/C1=CC(C)OC1=O (centres undefined)	> 30	Non-Toxic	Non-Toxic						
C=CCCCCCCCCC/C=C1/C(=O)O[C@@H](C)[C@H]1O	3	Non-Toxic	Non-Toxic						
C=CCCCCCCCC/C=C/[C@H]1C(=O)O[C@H](C)[C@@H]1O	14	Non-Toxic	Non-Toxic						
CC1=C(O)C(=O)C=C2C1=CC=C1[C@@]2(C)CC[C@@]2(C)[C@@H]3C[C@](C)(C(=O)O)CC[C@]3(C)CC[C@]12C [CELASTROL]	1								
C=CCCCCCCCCC/C=C1/C(=O)O[C@H](C)[C@H]1O	3.1	Non-Toxic	Non-Toxic	Dose-dependent effect	Active	Dose-dependent effect	Dose-dependent effect	Dose-dependent effect	Dose-dependent effect
C=CCCCCCCCC/C=C/[C@H]1C(=O)O[C@@H](C)[C@H]1O	> 30	Non-Toxic	Non-Toxic						
CCCCC/C=C/C/C=C/CCCC/C=C/C1=CC(C)OC1=O (centres undefined)	> 30	Non-Toxic	Non-Toxic						
CC/C=C/CCCCCCCCC/C=C1/C(=O)O[C@H](C)[C@H]1O	2.5	Non-Toxic	Non-Toxic						
C=CCCCCCCCC/C=C/C1=CC(C)OC1=O (centres undefined)	> 30	Non-Toxic	Non-Toxic						
C#CCCCCCCCCC/C=C1\C(=O)O[C@H](C)[C@H]1O	12.8	Non-Toxic	Non-Toxic	Dose-dependent effect					
C=C/C=C/CCCCCCCC/C=C/C1=CC(C)OC1=O (centres undefined)	> 30	Non-Toxic	Non-Toxic						
C=CCCCCCCCCC/C=C1\C(=O)O[C@H](C)[C@H]1O	4.5	Non-Toxic	Non-Toxic	Dose-dependent effect					
C=C/C=C/CCCCCCCCC/C=C1/C(=O)O[C@H](C)[C@H]1O	5.8	Non-Toxic	Non-Toxic	Dose-dependent effect	Active				

— ChEMBL document CHEMBL4118158, “Lactones from the pericarps of Litsea japonica and their anti-inflammatory activities” (Bioorg Med Chem Lett, 2018)
